Earlier results on one compound are cited in PMC4447334 (Journal of the American Chemical Society, 2015).

One series deals with T1, PAD3 (Homo sapiens, UniProt Q9ULW8).
T1 sequence (Q9ULW8 1-664): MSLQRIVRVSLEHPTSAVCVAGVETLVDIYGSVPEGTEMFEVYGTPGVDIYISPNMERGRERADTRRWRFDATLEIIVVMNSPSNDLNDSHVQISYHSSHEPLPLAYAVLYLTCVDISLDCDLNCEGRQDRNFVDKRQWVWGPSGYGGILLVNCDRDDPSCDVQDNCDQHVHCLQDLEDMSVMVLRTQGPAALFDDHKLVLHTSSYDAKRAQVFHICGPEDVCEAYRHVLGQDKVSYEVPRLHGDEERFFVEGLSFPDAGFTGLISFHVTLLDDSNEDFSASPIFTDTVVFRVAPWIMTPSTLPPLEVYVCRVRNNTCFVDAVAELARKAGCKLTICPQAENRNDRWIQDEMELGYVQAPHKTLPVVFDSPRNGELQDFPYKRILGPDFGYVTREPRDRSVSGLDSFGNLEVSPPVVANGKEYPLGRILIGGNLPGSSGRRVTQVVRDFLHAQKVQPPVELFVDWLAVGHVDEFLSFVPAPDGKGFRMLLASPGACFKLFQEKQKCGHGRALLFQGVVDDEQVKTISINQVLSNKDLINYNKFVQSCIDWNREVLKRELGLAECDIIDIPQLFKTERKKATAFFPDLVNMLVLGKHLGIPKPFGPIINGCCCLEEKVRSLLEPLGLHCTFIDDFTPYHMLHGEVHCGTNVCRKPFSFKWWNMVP
The settings on record: exact value reported.

For the next series, the target named is T2, PAD1 (Homo sapiens, UniProt Q9ULC6).
T2 sequence (Q9ULC6 1-663): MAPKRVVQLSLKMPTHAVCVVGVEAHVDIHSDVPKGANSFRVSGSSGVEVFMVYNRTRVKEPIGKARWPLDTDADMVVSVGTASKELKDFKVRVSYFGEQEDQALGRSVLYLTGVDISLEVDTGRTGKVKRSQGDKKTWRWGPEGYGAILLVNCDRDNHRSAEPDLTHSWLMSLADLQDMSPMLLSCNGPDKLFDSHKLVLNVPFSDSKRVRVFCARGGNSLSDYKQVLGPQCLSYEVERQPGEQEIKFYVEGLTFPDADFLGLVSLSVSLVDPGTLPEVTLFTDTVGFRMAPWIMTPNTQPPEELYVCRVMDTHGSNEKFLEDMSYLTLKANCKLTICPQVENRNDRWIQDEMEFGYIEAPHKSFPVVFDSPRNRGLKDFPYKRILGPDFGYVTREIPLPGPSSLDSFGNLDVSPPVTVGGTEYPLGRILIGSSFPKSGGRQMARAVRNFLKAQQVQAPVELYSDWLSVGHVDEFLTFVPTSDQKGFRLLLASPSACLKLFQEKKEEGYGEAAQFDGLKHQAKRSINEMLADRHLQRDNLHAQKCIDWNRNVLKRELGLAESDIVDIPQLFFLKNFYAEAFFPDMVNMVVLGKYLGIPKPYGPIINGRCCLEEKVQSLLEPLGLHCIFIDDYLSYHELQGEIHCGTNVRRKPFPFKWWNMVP
The settings on record: approximate, from chart in Figure 6A.

The target in a further series is PAD4 (Homo sapiens, UniProt Q9UM07). The settings on record: approximate, from chart in Figure 6A.
Sequence of PAD4 (Q9UM07 whole entry): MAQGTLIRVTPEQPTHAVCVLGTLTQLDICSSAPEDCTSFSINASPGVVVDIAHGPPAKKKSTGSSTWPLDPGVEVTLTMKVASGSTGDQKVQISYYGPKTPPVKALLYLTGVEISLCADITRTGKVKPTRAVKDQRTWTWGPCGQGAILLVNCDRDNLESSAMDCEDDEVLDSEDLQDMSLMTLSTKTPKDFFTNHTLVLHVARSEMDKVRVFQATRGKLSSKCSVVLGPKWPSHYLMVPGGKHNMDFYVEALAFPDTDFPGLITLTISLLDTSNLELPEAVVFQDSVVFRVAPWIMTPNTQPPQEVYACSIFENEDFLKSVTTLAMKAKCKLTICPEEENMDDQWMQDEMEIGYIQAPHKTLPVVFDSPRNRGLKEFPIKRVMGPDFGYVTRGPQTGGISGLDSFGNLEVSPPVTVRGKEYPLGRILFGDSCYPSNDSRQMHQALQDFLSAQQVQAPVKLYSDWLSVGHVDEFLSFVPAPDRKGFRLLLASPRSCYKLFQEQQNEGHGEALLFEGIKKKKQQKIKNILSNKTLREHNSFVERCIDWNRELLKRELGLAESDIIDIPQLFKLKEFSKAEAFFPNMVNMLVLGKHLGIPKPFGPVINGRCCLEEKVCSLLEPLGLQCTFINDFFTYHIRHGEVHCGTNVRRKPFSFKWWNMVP

The term IC50 denotes the point on the concentration scale where inhibition reaches its midpoint. Consider `N=C(CF)NCCCC[C@H](NC(=O)c1ccccc1)C(N)=O` [F4-amidine], for which the IC50 at PAD3 was 65 µM; at PAD1, roughly 250 µM; at PAD4 it was roughly 625 µM.
